Measured values as given in the supplement of paper PMC10627819.

Legend:
Assay in all cases: fitness (endpoint OD595 vs no drug) (fraction); higher = more growth
S. aureus Newman = system: S. aureus Newman
Summary of the method: (§1)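 Each well of a 384-well plate received 30 µl of culture at OD595 0.01, or 55 µl for S. pneumoniae. TSB, LB Lennox or CY served as media at 37 °C. OD595 was taken every 30 min for 14 h and corrected by subtracting the first reading. Fitness is the optical density at stationary-phase entry divided by the robust mean of no-drug controls, capped at 1.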

S. aureus DSM 20231 = system: S. aureus DSM 20231
Summary of the method: as §1

S. pneumoniae D39V = system: S. pneumoniae D39V
Summary of the method: as §1

CC1(C)S[C@@H]2[C@H](NC(=O)Cc3ccccc3)C(=O)N2[C@H]1C(=O)O [Penicillin G] + CCCCCCCCCC(=O)N[C@@H]1[C@H]([C@@H]([C@H](O[C@H]1OC2=C3C=C4C=C2OC5=C(C=C(C=C5)[C@H]([C@H]6C(=O)N[C@@H](C7=C(C(=CC(=C7)O)OC8[C@H]([C@H]([C@@H]([C@H](O8)CO)O)O)O)C9=C(C=CC(=C9)[C@H](C(=O)N6)NC(=O)[C@@H]4NC(=O)[C@@H]1C2=CC(=CC(=C2)OC2=C(C=CC(=C2)[C@H](C(=O)N[C@H](CC2=CC(=C(O3)C=C2)Cl)C(=O)N1)N)O)O)O)C(=O)O)O[C@H]1[C@@H]([C@H]([C@@H]([C@H](O1)CO)O)O)NC(=O)C)Cl)CO)O)O [Teicoplanin]
fitness, S. aureus Newman, main component drawn
Settings | first compound 0.0195 µg/mL | first compound 0.039 µg/mL | first compound 0.078 µg/mL
partner 0.1562 µg/mL | 0.983 | ≥ 1 | ≥ 1
partner 0.3125 µg/mL | 0.955 | 0.924 | 0.921
partner 0.625 µg/mL | 0.803 | 0.824 | 0.776

fitness, S. aureus Newman, one replicate, main component drawn
Settings | first compound 0.0195 µg/mL | first compound 0.039 µg/mL | first compound 0.078 µg/mL
partner 0.62 µg/mL | 0.697 | 0.741 | 0.715
partner 1.24 µg/mL | 0.702 | 0.732 | 0.711
partner 2.48 µg/mL | 0.377 | 0.393 | 0.284

CC(=O)Oc1ccccc1C(=O)O [Acetylsalicylic acid] + CC[C@H]1OC(=O)[C@H](C)[C@@H](O[C@H]2C[C@@](C)(OC)[C@@H](O)[C@H](C)O2)[C@H](C)[C@@H](O[C@@H]2O[C@H](C)C[C@H](N(C)C)[C@H]2O)[C@](C)(O)C[C@@H](C)CN(C)[C@H](C)[C@@H](O)[C@]1(C)O [Azithromycin]
fitness, S. aureus DSM 20231
Settings | first compound 250 µg/mL | first compound 500 µg/mL | first compound 1000 µg/mL
partner 0.125 µg/mL | 0.806 | 0.714 | 0.601
partner 0.25 µg/mL | 0.83 | 0.748 | 0.614
partner 0.5 µg/mL | 0.702 | – | 0.597

CC1(C)S[C@@H]2[C@H](NC(=O)Cc3ccccc3)C(=O)N2[C@H]1C(=O)O [Penicillin G] + CC1=C\[C@@H](O)CC(=O)Cc2nc(co2)C(=O)N2CCC=C2C(=O)O[C@H](C(C)C)[C@H](C)/C=C/C(=O)NC\C=C\1 [Virginiamycin M1]
fitness, S. aureus Newman
Settings | first compound 0.0195 µg/mL | first compound 0.039 µg/mL | first compound 0.078 µg/mL
partner 0.0625 µg/mL | 0.896 | 0.929 | 0.917
partner 0.125 µg/mL | 0.935 | 0.924 | 0.955
partner 0.25 µg/mL | 0.914 | 0.913 | 0.925

fitness, S. aureus Newman, one replicate
Settings | first compound 0.0195 µg/mL | first compound 0.039 µg/mL | first compound 0.078 µg/mL
partner 0.5 µg/mL | 0.834 | 0.766 | 0.788
partner 1 µg/mL | 0.916 | 0.877 | 0.856
partner 2 µg/mL | 0.807 | 0.741 | 0.717

O=C(O)c1cn(C2CC2)c2cc(N3CCNCC3)c(F)cc2c1=O [Ciprofloxacin] + CO/N=C(\C(=O)N[C@@H]1C(=O)N2C(C(=O)[O-])=C(C[N+]3(C)CCCC3)CS[C@H]12)c1csc(N)n1 [Cefepime]
Settings | fitness
S. aureus Newman, first compound 0.0375 µg/mL, partner 0.125 µg/mL | 0.764
S. aureus Newman, first compound 0.0375 µg/mL, partner 0.25 µg/mL | 0.684
S. aureus Newman, first compound 0.0375 µg/mL, partner 0.5 µg/mL | 0.642
S. aureus Newman, first compound 0.075 µg/mL, partner 0.125 µg/mL | 0.686
S. aureus Newman, first compound 0.075 µg/mL, partner 0.25 µg/mL | 0.667
S. aureus Newman, first compound 0.075 µg/mL, partner 0.5 µg/mL | 0.604
S. pneumoniae D39V, first compound 0.125 µg/mL, partner 0.007 µg/mL | 0.991
S. pneumoniae D39V, first compound 0.125 µg/mL, partner 0.0078 µg/mL | ≥ 1
S. pneumoniae D39V, first compound 0.125 µg/mL, partner 0.014 µg/mL | ≥ 1
S. pneumoniae D39V, first compound 0.125 µg/mL, partner 0.0155 µg/mL | 0.935
S. pneumoniae D39V, first compound 0.125 µg/mL, partner 0.028 µg/mL | 0.917
S. pneumoniae D39V, first compound 0.25 µg/mL, partner 0.007 µg/mL | 0.942
S. pneumoniae D39V, first compound 0.25 µg/mL, partner 0.014 µg/mL | 0.972
S. pneumoniae D39V, first compound 0.25 µg/mL, partner 0.028 µg/mL | 0.841
S. pneumoniae D39V, first compound 0.5 µg/mL, partner 0.007 µg/mL | 0.877
S. pneumoniae D39V, first compound 0.5 µg/mL, partner 0.0078 µg/mL | 0.811
S. pneumoniae D39V, first compound 0.5 µg/mL, partner 0.014 µg/mL | 0.903
S. pneumoniae D39V, first compound 0.5 µg/mL, partner 0.0155 µg/mL | 0.734
S. pneumoniae D39V, first compound 0.5 µg/mL, partner 0.028 µg/mL | 0.779
S. pneumoniae D39V, first compound 0.5 µg/mL, partner 0.031 µg/mL | 0.289

S. pneumoniae D39V, first compound 0.25 µg/mL, one replicate
Settings | fitness
partner 0.0078 µg/mL | 0.929
partner 0.0155 µg/mL | 0.959
partner 0.031 µg/mL | 0.741

CC1(C)S[C@@H]2[C@H](NC(=O)Cc3ccccc3)C(=O)N2[C@H]1C(=O)O [Penicillin G] + CN[C@@H]1[C@H](O)[C@H](NC)[C@H]2O[C@@]3(O)C(=O)C[C@@H](C)O[C@H]3O[C@@H]2[C@H]1O [Spectinomycin]
fitness, S. aureus Newman
Settings | first compound 0.0195 µg/mL | first compound 0.039 µg/mL | first compound 0.078 µg/mL
partner 4 µg/mL | 0.857 | 0.848 | 0.817
partner 8 µg/mL | 0.852 | 0.857 | 0.828
partner 16 µg/mL | 0.844 | 0.806 | 0.802

fitness, S. aureus Newman, one replicate
Settings | first compound 0.0195 µg/mL | first compound 0.039 µg/mL | first compound 0.078 µg/mL
partner 32 µg/mL | 0.462 | 0.35 | 0.272
partner 64 µg/mL | 0.0086 | 0.0192 | 0.0551

CC(=O)Oc1ccccc1C(=O)O [Acetylsalicylic acid] + CCCCCCCCCC(=O)N[C@@H]1[C@H]([C@@H]([C@H](O[C@H]1OC2=C3C=C4C=C2OC5=C(C=C(C=C5)[C@H]([C@H]6C(=O)N[C@@H](C7=C(C(=CC(=C7)O)OC8[C@H]([C@H]([C@@H]([C@H](O8)CO)O)O)O)C9=C(C=CC(=C9)[C@H](C(=O)N6)NC(=O)[C@@H]4NC(=O)[C@@H]1C2=CC(=CC(=C2)OC2=C(C=CC(=C2)[C@H](C(=O)N[C@H](CC2=CC(=C(O3)C=C2)Cl)C(=O)N1)N)O)O)O)C(=O)O)O[C@H]1[C@@H]([C@H]([C@@H]([C@H](O1)CO)O)O)NC(=O)C)Cl)CO)O)O [Teicoplanin]
fitness, S. aureus DSM 20231, main component drawn
Settings | partner 0.1562 µg/mL | partner 0.3125 µg/mL | partner 0.625 µg/mL
first compound 250 µg/mL | 0.957 | 0.98 | 0.979
first compound 500 µg/mL | 0.887 | 0.894 | 0.871

CC1(C)S[C@@H]2[C@H](NC(=O)Cc3ccccc3)C(=O)N2[C@H]1C(=O)O [Penicillin G] + CN1C2=CC=CC=C2N=C3C1=CC=CC3=O [Pyocyanin]
fitness, S. aureus Newman
Settings | first compound 0.0195 µg/mL | first compound 0.039 µg/mL | first compound 0.078 µg/mL
partner 1.25 µg/mL | 0.807 | 0.831 | 0.801
partner 2.5 µg/mL | 0.783 | 0.744 | 0.707
partner 5 µg/mL | 0.434 | 0.334 | 0.302

O=C(O)c1cn(C2CC2)c2cc(N3CCNCC3)c(F)cc2c1=O [Ciprofloxacin] + CC1(C)S[C@@H]2[C@H](NC(=O)Cc3ccccc3)C(=O)N2[C@H]1C(=O)O [Penicillin G]
fitness, S. aureus Newman
Settings | first compound 0.0375 µg/mL | first compound 0.075 µg/mL | first compound 0.15 µg/mL
partner 0.0195 µg/mL | 0.66 | 0.582 | 0.0269
partner 0.039 µg/mL | 0.679 | 0.593 | 0.0263
partner 0.078 µg/mL | 0.688 | 0.593 | 0.024

CC1(C)S[C@@H]2[C@H](NC(=O)Cc3ccccc3)C(=O)N2[C@H]1C(=O)O [Penicillin G] + C[n+]1ccc(-c2cc[n+](C)cc2)cc1 [Paraquat]
fitness, S. aureus Newman
Settings | first compound 0.0195 µg/mL | first compound 0.039 µg/mL | first compound 0.078 µg/mL
partner 1.25 µg/mL | 0.827 | 0.832 | 0.876
partner 2.5 µg/mL | 0.863 | 0.871 | 0.827
partner 5 µg/mL | 0.875 | 0.807 | 0.819
